Like-named read-outs stand apart in the source and are kept apart here.
Key:
ALK5 = biological target: T1, ALK5 (Homo sapiens, UniProt P36897); experiment: recombinant kinase assays; format: biochemical
T1 sequence (P36897 34-503): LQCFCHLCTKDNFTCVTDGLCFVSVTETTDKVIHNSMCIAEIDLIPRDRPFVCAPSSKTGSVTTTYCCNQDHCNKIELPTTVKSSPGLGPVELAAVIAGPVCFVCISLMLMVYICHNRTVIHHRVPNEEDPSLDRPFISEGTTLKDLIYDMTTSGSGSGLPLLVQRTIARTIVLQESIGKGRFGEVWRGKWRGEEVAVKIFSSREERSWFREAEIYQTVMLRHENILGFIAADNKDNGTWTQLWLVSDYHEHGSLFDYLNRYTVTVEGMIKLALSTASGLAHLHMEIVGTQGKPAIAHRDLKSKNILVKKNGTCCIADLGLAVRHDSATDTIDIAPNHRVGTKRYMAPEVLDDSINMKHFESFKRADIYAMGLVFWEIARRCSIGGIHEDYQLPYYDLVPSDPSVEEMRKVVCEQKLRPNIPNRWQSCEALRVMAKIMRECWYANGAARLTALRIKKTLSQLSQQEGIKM
Text: Compound N was compared to Compound C in a number of in vitro assays.

[1] = tested on: primary mouse CD4+ T cells; experiment: MTS proliferation assay; format: cell-based
Description: Compounds A-D were tested to determine whether they could inhibit TGF-β signaling in primary mouse CD4^+ T cells.
Primary mouse CD4^+ T cells were isolated from the spleens of C57/B6 mice using the RoboSep™ cell isolation system (Stemcell Technologies). 0.5 μg/ml of hamster anti-mouse CD3e antibody (145-2C11; eBioscience) was coated onto a 96 well flat bottom plate overnight. 1×10^5 purified CD4^+ T cells were incubated with 1 μg/ml soluble hamster anti-mouse CD28 antibody (37.51, BD Biosciences), 1 nM TGF-β1 and 8-fold serial dilutions of Compounds A-D. After 72 hours, cell proliferation was measured using an MTS assay (Promega) in accordance with the manufacturer's instructions.

[2] = tested on: TGF-β-induced luciferase activity in HEK293T cells; experiment: TGF-β-induced SMAD luciferase reporter assay in HEK293T cells; format: cell-based, human; conditions: HEK-293T
Description: Compounds A-D were tested to determine whether they could inhibit TGF-β-induced luciferase activity in HEK293T cells in vitro.
30,000 HEK293T cells were seeded in a 96 well white flat bottom plate overnight. The next day 100 ng of a SMAD luciferase reporter plasmid per well was transfected into the cells using lipofectamine for 24 hours. The next day cells were treated with Compounds A-D and 100 pM TGFβ for 24 hours. Luciferase activity was measured using the Dual-Glo® luciferase assay kit (Promega). The assay was run twice for Compounds A, B, and D, and three times for Compound C.

[3] = Kinase = 1.5 nM, read-out: IC50 (nM) (Kinase = 1.5 nM)
[4] = Kinase = 25 nM, read-out: IC50 (nM) (Kinase = 25 nM)
[5] = Morrison equat/ 5 uM ATP, read-out: Ki (nM) (Morrison equat/ 5 uM ATP)
[6] = Steady state equation, read-out: Ki (nM) (Steady state equation)

| IC50 (ALK5; [3]) [nM] | IC50 (ALK5; [4]) [nM] | Ki (ALK5; [5]) [nM] | Ki (ALK5; [6]) [nM] | Structure (SMILES) | effect on TGFβ-mediated inhibition of T cell proliferation ([1]; 1 nM TGF-β1, 72 hours) | Experiment 1 IC50 (nM) ([1]; 1 nM TGF-β1, 72 hours) | other results |
| --- | --- | --- | --- | --- | --- | --- | --- |
| 1.8 | 10 | 0.11 | 2.25 | CNCCOc1ccc(-c2cc(-c3c[nH]nc3-c3cccc(C)n3)ccn2)cc1 [Compound C, N-methyl-2-(4-(4-(3-(6-methylpyridin-2-yl)-1H-pyrazol-4-yl)pyridin-2-yl)phenoxy)ethan-1-amine] | reversed TGFβ-mediated inhibition of T cell proliferation |  | fold more potent than Compound N in the recombinant assays (ALK5): 10 fold; IC50 ([1]; CD4+ T, summary value, mouse T cells, read-out: Mouse T cell proliferation assay): 26 nM; IC50 ([2]; summary value, human HEK cells, read-out: HEK Luciferase Assay): 11.7 nM; IC50 ([2]; Homo sapiens, Experiment 1, 100 pM TGFβ, 24 hours, read-out: Experiment 1 IC50): 10.1 nM |
|  |  |  |  | Cc1cccc(-c2nc(N)sc2-c2ccc3ncccc3n2)n1 [Compound A, 4-(6-methylpyridin-2-yl)-5-(1,5-naphthyridin-2-yl)thiazol-2-amine] | did not show consistent effects | Value not obtained |  |
|  |  |  |  | CNCCOc1ccc(-c2cc(-c3c[nH]nc3-c3ccccn3)ccn2)cc1 [Compound B, N-methyl-2-(4-(4-(3-(pyridin-2-yl)-1H-pyrazol-4-yl)pyridin-2-yl)phenoxy)ethan-1-amine] | reversed TGFβ-mediated inhibition of T cell proliferation |  |  |
| 12 | 18 | 2.1 | 18.4 | CCc1cc(-c2ccc3ncnc(N)c3c2)n(-c2cccc(C)n2)n1 [Compound N] |  |  |  |
|  |  |  |  | CCNC(=O)c1ccc2c(c1)NC(=O)/C2=C(\Nc1ccc(N(CCNC)S(C)(=O)=O)cc1)c1ccccc1 [Compound D, (Z)-N-ethyl-3-(((4-(N-(2-(methylamino)ethyl)methylsulfonamido)phenyl)amino)(phenyl)methylene)-2-oxoindoline-6-carboxamide] | not obtained | Value not obtained | Experiment 2 IC50 (nM) ([1]; Experiment 2, 1 nM TGF-β1, 72 hours): Value not obtained |
